# Read-outs that look alike come from different tables or passages of the source.
# Key:
# [1] = test system: rat aortic strips; test: Vasodilating activity: relaxation of isolated rat aortic strips contracted with potassium chloride; details: read-out: Median effective concentration (ED50)
# Procedure: Vasodilating activity was examined by use of the method described by N. Tada et al., J. Pharmacol. Exp. Ther., 191, 139 (1974). The rat aortic strips were isolated and contracted using 30 mM of potassium chloride. Dose dependent relaxation in the aortic strips was observed by adding the test compounds. At the end of each experiment, papaverine in a concentration of 3×10^-5 g/ml was added and the relaxation induced was taken as 100%. Median effective concentration (ED50) was obtained from dose response curves.
# [2] = Diuretic activity (urinary excretion) in rats; format: in vivo; details: standard dose of 10 mg/kg; for Urinary excretion K^30: potassium, control 0.53; for Urinary excretion Na^+ /K^ +: ratio, control 2.9; for Urinary excretion Na^30: sodium, control 1.5; for Urinary excretion: urine volume, control 9.5
# Procedure: Diuretic activity was evaluated according to the method described by W. L. Lipschits et al., J. Pharmacol. Exp. Ther., 79, 97 (1943). The results in rats are shown in Table I, where the data for a standard dose of 10 mg/kg is listed for the purpose of comparison.
# [3] = rat aortic strips contracted with 30 mM potassium chloride, relaxation by papaverine 3×10^-5 g/ml taken as 100%
"EC50 [1, 3] [µg/mL]",SMILES,Urinary excretion K^30 [2] [mequiv/kg],Urinary excretion Na^+ /K^ + [2],Urinary excretion Na^30 [2] [mequiv/kg],Urinary excretion [2] [mL/kg],EC50 ([1]; Rattus norvegicus) [µg/mL]
0.27,"CCCCN1C2=NCCCN2C(c2ccccc2)c2cc(Cl)ccc21 (stereo not shown) [8-Cl, H, H, n-Bu, H, CH2 CH2 CH2, 8-Chloro-11-(n-butyl)-6-phenyl-3,4,6,11-tetrahydro-2H-pyrimido[2,1-b]quinazoline]",,,,,
1,"COc1ccc2c(c1)C(c1ccccc1)N1CCN=C1N2CC1CC1 (stereo not shown) [7-MeO, H, H, [drawing 6], H, CH2 CH2, 10-Cyclopropylmethyl-7-methoxy-5-phenyl-2,3,5,10-tetrahydroimidazo[2,1-b]quinazoline]",,,,,
0.24,"Clc1ccc2c(c1)N(CC1CC1)C1=NCCN1C2c1ccccc1 (stereo not shown) [8-Cl, H, H, [drawing 3], H, CH2 CH2, 8-Chloro-10-cyclopropylmethyl-5-phenyl-2,3,5,10-tetrahydroimidazo[2,1-b]quinazoline]",0.92,4.0,3.7,26.8,
0.29,"Clc1ccc2c(c1)N(CC1CC1)C1=NCCCN1C2c1ccccc1 (stereo not shown) [9-Cl, H, H, [drawing 4], H, CH2 CH2 CH2, 9-Chloro-11-cyclopropylmethyl-6-phenyl-3,4,6,11-tetrahydro-2H-pyrimido[2,1-b]quinazoline]",0.78,6.1,4.7,34.3,

# Continued, molecule first:
SMILES,"EC50 [1, 3] [µg/mL]",Urinary excretion K^30 [2] [mequiv/kg],Urinary excretion Na^+ /K^ + [2],Urinary excretion Na^30 [2] [mequiv/kg],Urinary excretion [2] [mL/kg],EC50 ([1]; Rattus norvegicus) [µg/mL]
"CCCCN1C2=NCCN2C(c2ccccc2)c2cc(Cl)ccc21 (stereo not shown) [7-Cl, H, H, n-Bu, H, CH2 CH2, 7-chloro-10-(n-butyl)-5-phenyl-2,3,5,10-tetrahydroimidazo[2,1-b]quinazoline]",,0.86,5.3,4.5,31.1,
"COc1ccc(Cc2nccc3cc(OC)c(OC)cc23)cc1OC [Papaverine, reference compound]",,,,,,4.6
"CN1C2=NCCCN2C(c2ccccc2)c2cc(Cl)ccc21 (stereo not shown) [8-Cl, H, H, Me, H, CH2 CH2 CH2, 8-chloro-11-methyl-6-phenyl-3,4,6,11-tetrahydro-2H-pyrimido[2,1-b]quinazoline]",,0.97,5.6,5.6,38.3,
"CN1C2=NCCN2C(O)(c2ccc(Cl)cc2)c2ccccc21 (stereo not shown) [H, H, p-Cl, Me, OH, CH2 CH2, 5-(p-chlorophenyl)-5-hydroxy-10-methyl-2,3,5,10-tetrahydroimidazo[2,1-b]quinazoline]",,0.84,5.2,4.4,32.6,

# — patent US4228167A, “Diuretic and vasodilating tricyclic quinazolines” (Sumitomo Chemical Company, Limited, priority 1977, dated 1980)
